Measurements reported in patent US7767455B2, “Nucleus export reporter system” (priority 2000, dated 2010).

Columns and labels:
[1] = tested on: huGFP reporter; experiment: Expression of the Rev-independent huGFP reporter in transfected H1299 cells (Western blot); format: cell-based, human; conditions: 5 nM LMB in the medium 24 h before harvesting, FIG. 5B
[2] = tested on: Rev-mediated nuclear export; experiment: Inhibition of Rev-dependent GFP expression of the UTR-hivGFP-RRE reporter in transfected H1299 cells (Western blot); format: cell-based, human; conditions: 5 nM LMB in the medium 24 h before harvesting, Rev cotransfected, FIG. 5B

For CCC(=C/[C@H](C)C/C=C/C(C)=C/[C@@H](C)C(=O)[C@@H](C)[C@H](O)[C@@H](C)C/C(C)=C/C(=O)O)/C=C/[C@@H]1OC(=O)C=C[C@@H]1C [LMB, Leptomycin B], the “expression of the huGFP reporter” value [1] was “not the expression of the huGFP reporter” and the “expression of the Rev-dependent GFP reporter” value [2] was “inhibit”.
